Measurements taken from patent publication US20190307741A1, “[…] PD1 AND/OR PDL1 INHIBITOR AS PHARMACEUTICAL COMBINATION” (priority 2016, published 2019).

Tested on: orthotopic MBT-2 mouse bladder tumors
Assay: Antitumour activity (survival) in C3H/HEJ mice bearing orthotopic MBT-2 mouse bladder tumors
Type: in vivo
Conditions: female C3H/HeJ mice, vinflunine ditartrate 12 mg/kg IP (Q2D×3)×2W
Protocol: The antitumour activity of vinflunine alone or in combination with an anti-PD1 antibody was evaluated in C3H/HEJ mice bearing orthotopic MBT-2 mouse bladder tumors.
Vinflunine ditartrate is administered to mice at a concentration of 1.2 mg/ml in a saline buffer (0.9% NaCl).
The anti-PD1 antibody (clone: RMP1-14, catalog: BE0146, B/N: 5311-10/0914B, Bioxcell), is administered to mice at a concentration of 1 mg/ml in PBS. […] 2005 Aug. 1; 175(3):1586-92.
Vinflunine ditartrate has been injected at 12 mg/kg,
The anti-PD1 antibody has been injected at 10 mg/kg/inj.
Vinflunine ditartrate and the anti-PD1 antibody have been administered at a dose volume of 10 ml/kg/adm (i.e for one mouse weighing 20 g, 200 μl has been administered).
Vinflunine ditartrate has been injected intraperitoneally (IP) into the peritoneal cavity of mice.
The anti-PD-1 antibody has been injected intraperitoneally (IP) into the peritoneal cavity of mice. […]
Tumor cells have been e grown as monolayer at 37° C. in a humidified atmosphere (5% CO2, 95% air). […] The cells have been counted in a hemocytometer and their viability has been assessed by 0.25% trypan blue exclusion assay. […]
Antitumour activity of vinflunine ditartrate alone, anti-PD1 antibody alone or of the combination was evaluated against MBT-2 cells orthotopically implanted by instillation C3H/HEJ mice. […]

With “20′,20′-difluoro-3′,4′-dihydrovinorelbine [vinflunine]” the “ILS: Increase of Life Span (compared to vehicle) (%)” value (ILS=T/C−100 (median day of death treated/control), anti-PD1 10 mg/kg/inj IP TW×2) was 46% and the “Survival gain (compared to vehicle) Median” value (anti-PD1 antibody 10 mg/kg/inj IP TW×2, treatment from D3, relative to vehicle) was 10 days.
